{"source": "patent US11298333B1", "about": "“Methods of reducing the risk of cardiovascular events in a subject” (Amarin Pharmaceuticals Ireland Limited, priority 2018, dated 2022)", "key": {"[1]": {"test_system": "hypertriglyceridemic patients with cardiovascular disease or at high risk for cardiovascular disease", "format": "in vivo", "conditions": "for Key secondary composite endpoint: relative risk reduction vs placebo / Primary composite endpoint: relative risk reduction vs placebo: over 5 years", "source_text": "The following study, also referred to as the REDUCE-IT clinical trial, was a large cardiovascular (CV) outcome trial designed to assess CV risk reduction benefit of AMR101 treatment (commercially known as VASCEPA®) versus placebo on the 5-point primary composite endpoint: CV death, non-fatal stroke, non-fatal myocardial infarction (MI), coronary revascularizations, or unstable angina requiring hospitalization.\nA multi-center, prospective, randomized, double-blind, placebo-controlled, parallel-group study was performed to evaluate the effect of AMR101 (4 g per day) on cardiovascular health and mortality in hypertriglyceridemic patients with cardiovascular disease or at high risk for cardiovascular disease. The intended expanded indication of the study was treatment with AMR101 as an add-on to statin therapy to reduce the risk of cardiovascular events in patients with clinical cardiovascular disease or with multiple risk factors for cardiovascular disease.\nThe primary objective of this study was, in patients at LDL-C goal while on statin therapy, with established cardiovascular disease (CVD) or at high risk for CVD, and hypertriglyceridemia (e.g., fasting triglycerides (TG) ≥200 mg/dL and <500 mg/dL), to evaluate the effect of AMR101 4 g daily on time from randomization to first occurrence of any component of the composite of the following major CV events: CV death; nonfatal MI; (including silent MI; electrocardiograms (ECGs) were performed annually for the detection of silent MIs); nonfatal stroke; coronary revascularization; and unstable angina determined to be caused by myocardial ischemia by invasive/non-invasive testing and requiring emergent hospitalization.\nThe key secondary objective of this study was to evaluate the effect of AMR101 4 g daily on the time from randomization to the first occurrence of the composite of following major CV events: CV death, nonfatal MI (including silent MI), and nonfatal stroke.\nOther secondary objectives for this study were to evaluate the effect of therapy on time from randomization to the first occurrence of the following individual or composite endpoints: composite of CV death or nonfatal MI (including silent MI); fatal or nonfatal MI (including silent MI); non-elective coronary revascularization represented as the composite of emergent or urgent classifications; CV death; unstable angina determined to be caused by myocardial ischemia by invasive/non-invasive testing and requiring emergent hospitalization; fatal or nonfatal stroke; composite of total mortality, nonfatal MI (including silent MI), or nonfatal stroke; and total mortality.\nPrimary Efficacy Endpoint: The primary efficacy endpoint was time from randomization to the first occurrence of the composite of the following clinical events: CV death; nonfatal MI (including silent MI; ECGs were performed annually for the detection of silent MIs); nonfatal stroke; coronary revascularization; and unstable angina determined to be caused by myocardial ischemia by invasive/non-invasive testing and requiring emergent hospitalization. The first occurrence of any of these major adverse vascular events during the follow-up period of the study were included in the incidence.\nSecondary Efficacy Endpoints: The key secondary efficacy endpoint was the time from randomization to the first occurrence of the composite of CV death, nonfatal MI (including silent MI), or nonfatal stroke. […]"}, "[2]": {"test_system": "hypertriglyceridemic patients with cardiovascular disease or at high risk for cardiovascular disease", "conditions": "in vivo", "procedure": "Specification of Variables and Procedures: Safety assessments included adverse events, clinical laboratory measurements (chemistry, hematology), 12-lead ECGs, vital signs (systolic and diastolic blood pressure, heart rate, respiratory rate, and body temperature), weight, waist circumference, and physical examinations as per Study Procedures in Table 1. […] All laboratory test results were evaluated by the investigator as to their clinical significance. Any observations at physical examinations or laboratory values considered by the investigator to be clinically significant were considered an adverse event.\nAn adverse event can therefore be any unfavorable and/or unintended sign (including an abnormal laboratory finding), symptom, or disease temporally associated with the use of an investigational medication product, whether or not related to the investigational medication product. All adverse events, including observed or volunteered problems, complaints, or symptoms, were recorded on the appropriate CRF. Each adverse event was evaluated for duration, intensity, and causal relationship with the study medication or other factors.\nSerious Adverse Events: A serious adverse event (SAE) is defined as an adverse event that meets any of the following criteria: • Results in death; • Is life-threatening—The term “life-threatening” in the definition of “serious” refers to an event in which the patient was at risk of death at the time of the event. […] Important medical events that may not result in death, be life threatening, or require hospitalization were considered an SAE when, based upon appropriate medical judgment, they may have jeopardized the patient and may have required medical or surgical intervention to prevent one of the outcomes listed above.\nAdverse Events of Special Interest: Bleeding-related adverse events, glucose control (fasting blood glucose and HbA1c), and indicators of hepatic disorders (e.g., ALT or AST increases >3×ULN, total bilirubin increases of ≥2×ULN) were summarized separately and compared between treatment groups.\nAnalysis of Safety: All analyses of safety were conducted on the safety population, which was defined as all randomized patients. The safety assessment was based on the frequency of adverse events, physical exams, vital signs and safety laboratory tests. AEs with new onset during the study between the initiation of study drug and 30 days after the last dose of study drug for each patient was considered treatment-emergent (TEAEs). This included any AE with onset prior to initiation of study drug and increased severity after the treatment initiation.\nThis included overall incidence rates (regardless of severity and relationship to study drug), and incidence rates for moderate or severe adverse events. A summary of SAEs and adverse events leading to early discontinuation (for ≥30 days) were presented through data listings. Patients who restarted study drug were included in the summary of AEs leading to discontinuation. Safety laboratory tests and vital signs were summarized by post-treatment change from baseline for each of the parameters using descriptive statistics by treatment group. Those patients with significant laboratory abnormalities were identified in data listings. Additional safety parameters were summarized in data listings."}, "[3]": {"conditions": "4 g/day, ITT, hierarchical secondary endpoint"}, "[4]": {"conditions": "4 g/day, ITT, median follow-up 4.9 years"}, "[5]": {"conditions": "4 g/day, ITT, time to first event, median follow-up 4.9 years"}, "[6]": {"conditions": "4 g/day, ITT, time to first event"}, "[7]": {"conditions": "4 g/day, ITT, time to first event, listed as AMR101"}}, "note": "Read-outs that look alike come from different tables or passages of the source."}
{"compound": "CC/C=C\\C/C=C\\C/C=C\\C/C=C\\C/C=C\\CCCC(=O)OCC", "note": "[Icosapent Ethyl, eicosapentaenoic acid ethyl ester]", "values": [{"measurement": "Cardiac arrest: reduction vs placebo", "setting": "[1]; 4 g/day", "result": 48, "unit": "%"}, {"measurement": "Reduction in heart attack vs placebo", "setting": "[1]; 4 g/day", "result": 31, "unit": "%"}, {"measurement": "Sudden death: reduction vs placebo", "setting": "[1]; 4 g/day", "result": 31, "unit": "%"}, {"measurement": "Cardiovascular death: relative risk reduction vs placebo", "setting": "[1]; 4 g/day, ITT", "result": 20, "unit": "%"}, {"measurement": "Composite of cardiovascular death or nonfatal myocardial infarction: RRR", "setting": "[1]; 4 g/day, ITT", "result": 25, "unit": "%"}, {"measurement": "Composite of total mortality, nonfatal myocardial infarction, or nonfatal stroke: RRR", "setting": "[1]; 4 g/day, ITT", "result": 23, "unit": "%"}, {"measurement": "Fatal or nonfatal myocardial infarction: RRR", "setting": "[1]; 4 g/day, ITT", "result": 31, "unit": "%"}, {"measurement": "Fatal or nonfatal stroke: RRR", "setting": "[1]; 4 g/day, ITT", "result": 28, "unit": "%"}, {"measurement": "Total mortality: HR vs placebo", "setting": "[1]; 4 g/day, ITT", "result": 0.87}, {"measurement": "Total mortality: relative risk reduction vs placebo", "setting": "[1]; 4 g/day, ITT", "result": 13, "unit": "%"}, {"measurement": "Cardiovascular death: HR vs placebo", "setting": "[1]; [3]", "result": 0.80}, {"measurement": "Cardiovascular death: patients with event", "setting": "[1]; [3]", "result": 4.3, "unit": "%"}, {"measurement": "Total mortality (death from any cause): patients with event", "setting": "[1]; 4 g/day, ITT, last hierarchical secondary endpoint", "result": 6.7, "unit": "%"}, {"measurement": "Key secondary composite endpoint: absolute risk reduction vs placebo", "setting": "[1]; [4]", "result": 3.6, "unit": "%"}, {"measurement": "Primary composite endpoint: absolute risk reduction vs placebo", "setting": "[1]; [4]", "result": 4.8, "unit": "%"}, {"measurement": "Key secondary composite endpoint (CV death, nonfatal MI, or nonfatal stroke): patients with event", "setting": "[1]; [5]", "result": 11.2, "unit": "%"}, {"measurement": "Primary composite endpoint (CV death, nonfatal MI, nonfatal stroke, coronary revascularization, or unstable angina): patients with event", "setting": "[1]; [5]", "result": 17.2, "unit": "%"}, {"measurement": "Key secondary composite endpoint: relative risk reduction vs placebo", "setting": "[1]; [6]", "result": 26, "unit": "%"}, {"measurement": "Primary composite endpoint: relative risk reduction vs placebo", "setting": "[1]; [6]", "result": 25, "unit": "%"}, {"measurement": "Key secondary composite endpoint: relative risk reduction vs placebo", "setting": "[1]; [7]", "result": 26, "unit": "%"}, {"measurement": "Primary composite endpoint: relative risk reduction vs placebo", "setting": "[1]; [7]", "result": 25, "unit": "%"}, {"measurement": "Adjudicated tertiary endpoint of heart failure: patients with event", "setting": "[1]; 4 g/day, no significant difference vs placebo", "result": 4.1, "unit": "%"}, {"measurement": "Primary endpoint: risk reduction in post hoc analysis excluding patients with diarrhea", "setting": "[1]; post hoc", "result": 25, "unit": "%"}, {"measurement": "Adjudicated sudden cardiac death: patients with event", "setting": "[1]; tertiary endpoint, 4 g/day, ITT", "result": 1.5, "unit": "%"}, {"measurement": "Cardiac Arrest: HR (95% CI)", "setting": "[1]; tertiary endpoint, vs placebo", "result": "0.52 (0.31, 0.86)"}, {"measurement": "Coronary Revascularization: HR (95% CI)", "setting": "[1]; tertiary endpoint, vs placebo", "result": "0.66 (0.58, 0.76)"}, {"measurement": "Elective Revascularization: HR (95% CI)", "setting": "[1]; tertiary endpoint, vs placebo", "result": "0.68 (0.57, 0.82)"}, {"measurement": "Emergent Revascularization: HR (95% CI)", "setting": "[1]; tertiary endpoint, vs placebo", "result": "0.62 (0.42, 0.92)"}, {"measurement": "Ischemic Stroke: HR (95% CI)", "setting": "[1]; tertiary endpoint, vs placebo", "result": "0.64 (0.49, 0.85)"}, {"measurement": "New Heart Failure Requiring Hospitalization: HR (95% CI)", "setting": "[1]; tertiary endpoint, vs placebo", "result": "0.97 (0.77, 1.22)"}, {"measurement": "New Heart Failure: HR (95% CI)", "setting": "[1]; tertiary endpoint, vs placebo", "result": "0.95 (0.77, 1.17)"}, {"measurement": "Primary Endpoint in Patients with Diabetes at Baseline: HR (95% CI)", "setting": "[1]; tertiary endpoint, vs placebo", "result": "0.77 (0.68, 0.87)"}, {"measurement": "Salvage Revascularization: HR (95% CI)", "setting": "[1]; tertiary endpoint, vs placebo", "result": "0.00 (0.00, —)"}, {"measurement": "Urgent Revascularization: HR (95% CI)", "setting": "[1]; tertiary endpoint, vs placebo", "result": "0.66 (0.54, 0.79)"}, {"measurement": "TEAE Upper respiratory tract infection", "setting": "[2]; human", "result": "312 (7.6%) n (%)"}, {"measurement": "TEAE Urinary tract infection", "setting": "[2]; human", "result": "253 (6.2%) n (%)"}, {"measurement": "Fatal bleeding events", "setting": "[2]", "result": "no fatal bleeding events"}]}
